Series [1] deals with Mycobacterium kansasii. The experiment in a line: Antimycobacterial activity against Mycobacterium kansasii 6509/96 after 21 days. Format: functional. Conditions: 6509/96, 504 h.
The subject of series [2] is Mycobacterium tuberculosis. The experiment in a line: Antimycobacterial activity against Mycobacterium tuberculosis H37Ra ITM-M006710 after 48 hr by resazurin dye based microdilution method. To be noted: H37Ra ITM-M006710, 48 h. Format: functional. (In general: Resazurin is reduced to fluorescent resorufin, in cell work by metabolically active cells.)
Series [3] concerns HepG2. Nature of the series: Cytostatic activity against human HepG2 cells preincubated for overnight in serum free medium followed by compound wash out and further incubated for 72 hrs in presence of serum by MTT assay. The format is ADME, cell-based. Background: Tetrazolium dyes change colour on reduction, which living cells bring about.
Series [4] deals with Mycobacterium kansasii. The experiment in a line: Antimycobacterial activity against Mycobacterium kansasii 235/80 after 21 days. Format: functional. Conditions: 235/80, 504 h.
The test system of series [5] is Mycobacterium tuberculosis. The format is functional. Conditions: H37Rv 331/88, 504 h.
The subject of series [6] is Mycolicibacterium smegmatis. The experiment in a line: Antimycobacterial activity against Mycobacterium smegmatis DSM 43465 after 120 hr by resazurin dye based microdilution method. Format: functional. Conditions: DSM 43465, 120 h.
For series [7], the system named is Mycobacterium tuberculosis. Format: functional. To be noted: H37Rv 331/88, 336 h.
Series [8] deals with Mycobacterium tuberculosis H37Rv. The experiment in a line: Inhibition of recombinant Mycobacterium tuberculosis H37Rv ICL1 expressed in Escherichia coli BL21 (DE3) cells at 10 uM using (+)-potassium Ds-threo-isocitrate as substrate by glyoxylate phenyl hydrazone formation assay relative to control.
Series [9] concerns Mycobacterium kansasii. Nature of the series: Antimycobacterial activity against Mycobacterium kansasii 6509/96 after 7 days. The format is functional. Conditions: 6509/96, 168 h.
Series [10] has as its system Mycobacterium kansasii. The experiment in a line: Antimycobacterial activity against Mycobacterium kansasii 235/80 after 7 days. The format is functional. To be noted: 235/80, 168 h.
Series [11] relates to Mycobacterium kansasii. The experiment in a line: Antimycobacterial activity against Mycobacterium kansasii 6509/96 after 14 days. The format is functional. Conditions: 6509/96, 336 h.
Series [12] has as its system HepG2. The experiment in a line: Cytotoxicity against human HepG2 cells assessed as reduction in cell viability after overnight incubation by MTT assay. The format is cell-based.
A short description of a further series: in vitro. To be noted: human, HepG2 cells.
The subject of series [13] is Mycobacterium kansasii. Nature of the series: Antimycobacterial activity against Mycobacterium kansasii 235/80 after 14 days. Format: functional. To be noted: 235/80, 336 h.
In series [14] the test system is Mycobacterium avium. The experiment in a line: Antimycobacterial activity against Mycobacterium avium 330/88 after 14 days. Format: functional. Conditions: 330/88, 336 h.
A further series has as its system Mycolicibacterium aurum. Nature of the series: Antimycobacterial activity against Mycobacterium aurum DSM 43999 after 72 hr by resazurin dye based microdilution method. Conditions: DSM 43999, 72 h. Format: functional.
Series [15] has as its system Mycobacterium avium. The experiment in a line: Antimycobacterial activity against Mycobacterium avium 330/88 after 21 days. Format: functional. To be noted: 330/88, 504 h.

Broadly, the MIC is the lowest concentration found to suppress growth. Higher therefore signals a less susceptible organism. By IC50 is commonly meant the concentration that inhibits the measured activity by half. Broadly, the inhibition is the percentage by which the read-out fell short of the control.

Structures are written as SMILES. Values after ≈ are worked out from the molar mass of the structure shown. Some results are limits rather than exact numbers.

Description for in vitro: Selectivity index, ratio of IC50 for human HepG2 cells to MIC for antimycobacterial activity against Mycobacterium tuberculosis H37Rv

In the case of `O=C(NC12CC3CC(CC(C3)C1)C2)Oc1ccc(Cl)cc1`, the MIC against Mycobacterium kansasii [1] is 125 µM (≈ 38.2 µg/mL); in series [2] it was 62.5 µg/mL; in the series on Mycobacterium kansasii [4], 125 µM (≈ 38.2 µg/mL); in series [5] it was 125 µM (≈ 38.2 µg/mL); in series [6], at least 125 µg/mL; in series [7], 62.5 µM (≈ 19.1 µg/mL). Further, the MIC in the series with Mycobacterium kansasii [9] was 125 µM (≈ 38.2 µg/mL); in the series on Mycobacterium kansasii [10] it was 125 µM (≈ 38.2 µg/mL); with Mycobacterium kansasii [11], 125 µM (≈ 38.2 µg/mL); in the series on Mycobacterium kansasii [13], 125 µM (≈ 38.2 µg/mL); in the series with Mycobacterium avium [14], 125 µM (≈ 38.2 µg/mL); against Mycolicibacterium aurum, at least 125 µg/mL. The same compound returned a minimum inhibitory concentration (MIC) with Mycobacterium avium [15] of 250 µM (≈ 76.5 µg/mL). For the same compound, the concentration for half-maximal inhibition (IC50) with HepG2 [3] was above 250 µM; in the series on HepG2 [12] it was above 125 µM. Also, the inhibition in [8] came out at 13%. In addition, the selectivity ratio in the series “in vitro” was above 1.

With `O=C(NCCc1ccccc1)Oc1ccc(Cl)cc1`, the MIC was found to be 500 µM (≈ 138 µg/mL) in the series on Mycobacterium kansasii [1]; 31.2 µg/mL in [2]; 500 µM (≈ 138 µg/mL) against Mycobacterium kansasii [4]; 250 µM (≈ 68.9 µg/mL) in [5]; 62.5 µg/mL in series [6]; 250 µM (≈ 68.9 µg/mL) in series [7]. Also, the MIC against Mycobacterium kansasii [9] turned out to be 125 µM (≈ 34.5 µg/mL); in the series on Mycobacterium kansasii [10], 125 µM (≈ 34.5 µg/mL); in the series with Mycobacterium kansasii [11] it was 250 µM (≈ 68.9 µg/mL); against Mycobacterium kansasii [13] it was 250 µM (≈ 68.9 µg/mL); in the series with Mycobacterium avium [14], 250 µM (≈ 68.9 µg/mL); in the series with Mycolicibacterium aurum, 125 µg/mL. The MIC against Mycobacterium avium [15] was determined as 500 µM (≈ 138 µg/mL). For the same compound, the IC50 was above 250 µM in the series with HepG2 [3] and above 125 µM with HepG2 [12]. The inhibition in series [8] worked out at 12%. Moreover, in the series “in vitro”, the selectivity ratio was above 0.5.

As to `O=C(O)CC[N+](=O)[O-]`, in series [8], the inhibition was 25%.

Take `NNC(=O)c1ccncc1` [ISONIAZID]: the minimum inhibitory concentration (MIC) against Mycobacterium kansasii [1] is 8 µM (≈ 1.1 µg/mL); in series [2] it was 0.91 to 1.82 µM; in the series with Mycobacterium kansasii [4] it was above 250 µM; in series [5], 1 µM (≈ 0.137 µg/mL); in [6], 15.6 µg/mL; in series [7], 0.5 µM (≈ 0.0686 µg/mL). In addition, the minimum inhibitory concentration (MIC) in the series on Mycobacterium kansasii [9] was 4 µM (≈ 0.549 µg/mL); in the series on Mycobacterium kansasii [10] it was above 250 µM; in the series on Mycobacterium kansasii [11] it was 8 µM (≈ 1.1 µg/mL); against Mycobacterium kansasii [13], above 250 µM; against Mycobacterium avium [14] it was above 250 µM; against Mycolicibacterium aurum, 3.91 µg/mL. Further, in the series with Mycobacterium avium [15], the MIC was above 250 µM. In series [8], the inhibition is 0%. Further, the IC50 in the series on HepG2 [12] is above 250 µM. Moreover, in “in vitro”, the selectivity ratio was above 250.

With `O=C(NCc1ccccc1)Oc1ccccc1C(=O)Nc1ccccc1`, the minimum inhibitory concentration (MIC) against Mycobacterium kansasii [1] was 250 µM (≈ 86.6 µg/mL); in series [2], 15.6 µg/mL; in the series with Mycobacterium kansasii [4], 250 µM (≈ 86.6 µg/mL); in series [5] it was 125 µM (≈ 43.3 µg/mL); in [6], 31.2 µg/mL; in series [7], 125 µM (≈ 43.3 µg/mL). Besides, the minimal inhibitory concentration (MIC) against Mycobacterium kansasii [9] worked out at 125 µM (≈ 43.3 µg/mL); against Mycobacterium kansasii [10] it was 125 µM (≈ 43.3 µg/mL); with Mycobacterium kansasii [11], 250 µM (≈ 86.6 µg/mL); against Mycobacterium kansasii [13] it was 250 µM (≈ 86.6 µg/mL); in the series on Mycobacterium avium [14] it was 125 µM (≈ 43.3 µg/mL); with Mycolicibacterium aurum, 31.2 µg/mL. For the same compound, in the series with Mycobacterium avium [15], the minimal inhibitory concentration (MIC) came to 125 µM (≈ 43.3 µg/mL). Moreover, the results for the IC50 in the series on HepG2 [3] and in the series with HepG2 [12] were 54.3 µM and above 125 µM, respectively. For the same compound, the inhibition in [8] came to 8%. Besides, the selectivity ratio in the series “in vitro” is above 1.

Regarding `CC[C@@H](CO)NCCN[C@@H](CC)CO` [ETHAMBUTOL], the minimum inhibitory concentration (MIC) came to 1.8 µM in [2], 1.8 µM in [6] and 0.9 µM against Mycolicibacterium aurum.

Consider `CO[C@H]1/C=C/O[C@@]2(C)Oc3c(C)c(O)c4c(O)c(c(/C=N/N5CCN(C)CC5)c(O)c4c3C2=O)NC(=O)/C(C)=C\C=C\[C@H](C)[C@H](O)[C@@H](C)[C@@H](O)[C@@H](C)[C@H](OC(C)=O)[C@@H]1C` [RIFAMPIN], for which the minimal inhibitory concentration (MIC) in series [2] is 0.0005 to 0.009 µM; in [6] it was 12.5 to 25 µg/mL; against Mycolicibacterium aurum it was 0.47 µM.

With `O=C(Nc1ccccc1)Oc1ccc(Cl)cc1`, the minimal inhibitory concentration (MIC) in the series on Mycobacterium kansasii [1] is 500 µM (≈ 124 µg/mL); in series [2], 7.81 µg/mL; against Mycobacterium kansasii [4], 500 µM (≈ 124 µg/mL); in series [5], 500 µM (≈ 124 µg/mL); in series [6], 15.6 µg/mL; in series [7], 250 µM (≈ 61.9 µg/mL). The MIC with Mycobacterium kansasii [9] was determined as 125 µM (≈ 31 µg/mL); in the series on Mycobacterium kansasii [10] it was 125 µM (≈ 31 µg/mL); in the series with Mycobacterium kansasii [11] it was 250 µM (≈ 61.9 µg/mL); in the series with Mycobacterium kansasii [13], 250 µM (≈ 61.9 µg/mL); in the series on Mycobacterium avium [14] it was 500 µM (≈ 124 µg/mL); in the series on Mycolicibacterium aurum it was 15.6 µg/mL. Also, it took 1000 µM (≈ 248 µg/mL) to inhibit growth in the series with Mycobacterium avium [15] (MIC). The IC50 in the series with HepG2 [3] and in the series on HepG2 [12] was above 125 µM each time. Besides, the inhibition in series [8] was 14%. Moreover, the selectivity ratio in the series “in vitro” was above 0.3.

The values are drawn from ChEMBL document CHEMBL4406824, “Phenolic N-monosubstituted carbamates: Antitubercular and toxicity evaluation of multi-targeting compounds” (Eur J Med Chem, 2019).
